Laboratory results from US10961215B2, “N-aryl and N-heteroaryl piperidine derivatives as liver X receptor beta agonists, compositions, and their use” (Merck Sharp & Dohme Corp., priority 2016, dated 2021).

Assays:
[1] = target: T1, GST tagged LXRbeta LBD (ligand binding domain) (Homo sapiens, UniProt P55055); experiment: LanthaScreen TR-FRET Liver X Receptor Coactivator Assay, LXR beta-LBD (co-activator recruitment; IP and % Emax relative to T0901317); assay type: biochemical; conditions: for EC50: Inflection Point of co-activator recruitment, LXR beta-LBD, TR-FRET; for Emax: efficacy at max dose in relation to reference T0901317, LXR beta-LBD, read-out: LXR beta actiivty at max dose (%)
T1 construct: purchased Invitrogen pv4658.pps
T1 sequence (P55055 222-460 limits assumed): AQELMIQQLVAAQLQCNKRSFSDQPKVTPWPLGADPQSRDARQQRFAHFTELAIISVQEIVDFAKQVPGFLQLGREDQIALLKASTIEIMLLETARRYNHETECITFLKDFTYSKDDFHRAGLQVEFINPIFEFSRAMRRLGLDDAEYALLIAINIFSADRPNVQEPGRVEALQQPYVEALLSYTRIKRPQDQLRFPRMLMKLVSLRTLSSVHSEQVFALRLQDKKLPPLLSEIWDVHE
How it was run: (§1)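 Compounds were first combined with the GST-LBD protein. A premixed fluorescein coactivator peptide and terbium-labelled anti-GST antibody was then added. Plates were incubated at room temperature and TR-FRET measured.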

[2] = target: T2, GST tagged LXRalpha LBD (ligand binding domain) (Homo sapiens, UniProt Q13133); experiment: LanthaScreen TR-FRET Liver X Receptor Coactivator Assay, LXR alpha-LBD (co-activator recruitment; IP and % Emax relative to T0901317); assay type: biochemical; conditions: for LXR alpha IP (nM) / EC50: Inflection Point of co-activator recruitment, LXR alpha-LBD, TR-FRET; for Emax: efficacy at max dose in relation to reference T0901317, LXR alpha-LBD, read-out: LXR alpha actiivty at max dose (%)
T2 construct: purchased Invitrogen pv4655
T2 sequence (Q13133 209-447 limits assumed): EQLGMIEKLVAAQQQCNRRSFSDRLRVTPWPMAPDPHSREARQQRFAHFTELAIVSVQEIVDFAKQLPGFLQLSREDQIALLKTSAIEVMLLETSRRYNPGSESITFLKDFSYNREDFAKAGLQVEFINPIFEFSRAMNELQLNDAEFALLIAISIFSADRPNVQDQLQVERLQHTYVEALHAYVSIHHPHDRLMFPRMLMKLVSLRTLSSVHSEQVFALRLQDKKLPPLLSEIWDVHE
How it was run: as §1

EC50 [1] [nM]	Emax [1] [%]	LXR alpha IP (nM) [2]	Emax [2] [%]	EC50 [2] [nM]	SMILES
45	57	No IP	16	–	COc1cccc([C@@](O)(C(=O)N(C)CC[C@H]2CC23CCN(c2ccc(C(=O)N(C)C4CC4)c(Cl)n2)CC3)C(F)(F)F)c1 [Example 7-18, 2-chloro-N-cyclopropyl-N-methyl-6-((R)-1-(2-((R)-3,3,3-trifluoro-2-hydroxy-2-(3-methoxyphenyl)-N-methylpropanamido)ethyl)-6-azaspiro[2.5]octan-6-yl)nicotinamide]
1550	36	No IP	12	–	CNC(=O)c1ccc(N2CCC3(CC2)C[C@H]3CCN(C)C(=O)[C@](O)(c2cccc(OC)c2)C(F)(F)F)cc1Cl [Example 7-21, 2-chloro-N-methyl-4-((S)-1-(2-((R)-3,3,3-trifluoro-2-hydroxy-2-(3-methoxyphenyl)-N-methylpropanamido)ethyl)-6-azaspiro[2.5]octan-6-yl)benzamide]
572	43	No IP	3	–	COc1cccc([C@@](O)(C(=O)N(C)CC[C@@H]2CC23CCN(c2ccc(C(=O)N(C)C)c(Cl)c2)CC3)C(F)(F)F)c1 [Example 7-22, 2-chloro-N,N-dimethyl-4-((S)-1-(2-((R)-3,3,3-trifluoro-2-hydroxy-2-(3-methoxyphenyl)-N-methylpropanamido)ethyl)-6-azaspiro[2.5]octan-6-yl)benzamide]
2070	32	No IP	7	–	COc1cccc([C@@](O)(C(=O)N(C)CC[C@@H]2CC23CCN(c2ccc(C(=O)NC(C)C)c(Cl)c2)CC3)C(F)(F)F)c1 [Example 7-23, 2-chloro-N-isopropyl-4-((S)-1-(2-((R)-3,3,3-trifluoro-2-hydroxy-2-(3-methoxyphenyl)-N-methylpropanamido)ethyl)-6-azaspiro[2.5]octan-6-yl)benzamide]
1410	37	No IP	16	–	CNC(=O)c1ccc(N2CCC3(CC2)C[C@H]3CCN(C)C(=O)[C@](O)(c2ccccc2)C(F)(F)F)cc1Cl [Example 7-24, 2-chloro-N-methyl-4-((S)-1-(2-((R)-3,3,3-trifluoro-2-hydroxy-N-methyl-2-phenylpropanamido)ethyl)-6-azaspiro[2.5]octan-6-yl)benzamide]
473	46	–	22	3100	CN(C)C(=O)c1ccc(N2CCC3(CC2)C[C@H]3CCN(C)C(=O)[C@](O)(c2ccccc2)C(F)(F)F)cc1Cl [Example 7-25, 2-chloro-N,N-dimethyl-4-((S)-1-(2-((R)-3,3,3-trifluoro-2-hydroxy-N-methyl-2-phenylpropanamido)ethyl)-6-azaspiro[2.5]octan-6-yl)benzamide]
1020	31	–	32	6100	CN(CC[C@@H]1CC12CCN(c1ccc(C(=O)NC3CC3)c(Cl)c1)CC2)C(=O)[C@](O)(c1ccccc1)C(F)(F)F [Example 7-26, 2-chloro-N-cyclopropyl-4-((S)-1-(2-((R)-3,3,3-trifluoro-2-hydroxy-N-methyl-2-phenylpropanamido)ethyl)-6-azaspiro[2.5]octan-6-yl)benzamide]
1870	32	No IP	5	–	COc1cccc([C@@](O)(C(=O)N(C)CC[C@@H]2CC23CCN(c2ccc(C(=O)NC4CC4)c(Cl)c2)CC3)C(F)(F)F)c1 [Example 7-27, 2-chloro-N-cyclopropyl-4-((S)-1-(2-((R)-3,3,3-trifluoro-2-hydroxy-2-(3-methoxyphenyl)-N-methylpropanamido)ethyl)-6-azaspiro[2.5]octan-6-yl)benzamide]
1620	31	No IP	6	–	CC(C)NC(=O)c1ccc(N2CCC3(CC2)C[C@H]3CCN(C)C(=O)[C@](O)(c2ccccc2)C(F)(F)F)cc1Cl [Example 7-28, 2-chloro-N-isopropyl-4-((S)-1-(2-((R)-3,3,3-trifluoro-2-hydroxy-N-methyl-2-phenylpropanamido)ethyl)-6-azaspiro[2.5]octan-6-yl)benzamide]
611	40	No IP	5	–	CC(C)N(C)C(=O)c1ccc(N2CCC3(CC2)C[C@H]3CCN(C)C(=O)[C@](O)(c2ccccc2)C(F)(F)F)cc1Cl [Example 7-29, 2-chloro-N-isopropyl-N-methyl-4-((S)-1-(2-((R)-3,3,3-trifluoro-2-hydroxy-N-methyl-2-phenylpropanamido)ethyl)-6-azaspiro[2.5]octan-6-yl)benzamide]
557	27	No IP	0	–	COc1cccc([C@@](O)(C(=O)N(C)CC[C@@H]2CC23CCN(c2ccc(C(=O)N(C)C(C)C)c(Cl)c2)CC3)C(F)(F)F)c1 [Example 7-30, 2-chloro-N-isopropyl-N-methyl-4-((S)-1-(2-((R)-3,3,3-trifluoro-2-hydroxy-2-(3-methoxy-phenyl)-N-methyl-propanamido)ethyl)-6-azaspiro[2.5]octan-6-yl)benzamide]
304	49	No IP	1	–	COc1cccc([C@@](O)(C(=O)NCC[C@H]2CC23CCN(c2ccc(C(=O)N(C)C(C)C)c(Cl)c2)CC3)C(F)(F)F)c1 [Example 7-31, 2-chloro-N-isopropyl-N-methyl-4-((R)-1-(2-((R)-3,3,3-trifluoro-2-hydroxy-2-(3-methoxy-phenyl)propanamido)ethyl)-6-azaspiro[2.5]octan-6-yl)benzamide]
284	69	No IP	17	–	COc1cccc([C@@](O)(C(=O)NCC[C@H]2CC23CCN(c2ccc(C(=O)N(C)C)c(Cl)c2)CC3)C(F)(F)F)c1 [Example 7-32, 2-chloro-N,N-dimethyl-4-((R)-1-(2-((R)-3,3,3-trifluoro-2-hydroxy-2-(3-methoxyphenyl)propanamido)ethyl)-6-azaspiro[2.5]octan-6-yl)benzamide]
136	44	No IP	0	–	CN(C)C(=O)c1ccc(N2CCC3(CC2)CC3CCCN(C)C(=O)[C@](O)(c2ccccc2)C(F)(F)F)cc1Cl (stereo partly drawn) [Example 7-33, 2-chloro-N,N-dimethyl-4-(1-(3-((R)-3,3,3-trifluoro-2-hydroxy-N-methyl-2-phenylpropanamido)propyl)-6-azaspiro[2.5]octan-6-yl)benzamide]
264	23	No IP	0	–	CN(C)C(=O)c1ccc(N2CCC3(CC2)CC3CCCN(C)C(=O)C(C)(C)c2ccccc2)cc1Cl (stereo not drawn) [Example 7-34, 2-chloro-4-(1-(3-(N,2-dimethyl-2-phenylpropanamido)propyl)-6-azaspiro[2.5]octan-6-yl)-N,N-dimethylbenzamide]
